Literature values as cited in patent US20260176636A1, “APTAMER-DIRECT INHIBITOR CONJUGATES AND METHODS OF USING THE SAME” (Duke University, priority 2022, published 2026).
[invdT] = inverted (3'-3') thymidine

Tested on: human thrombin
Details: approximately 1 μM; cited from earlier work

Tog25t: thrombin exosite II-targeting RNA aptamer, SEQ ID NO: 12 (GGGAACAAAGCUGAAGUACUUACCC; [invdT] at 3' end, other sugars and backbone not given here; further chemistry not fully specified)
effect on aPTT clotting time: modest extension in aPTT clotting time
